We go through one molecule from article PMC7067850, “Identification of highly potent and selective inhibitor, TIPTP, of the p22phox-Rubicon axis as a therapeutic agent for rheumatoid arthritis” (Scientific Reports, 2020).

The nature of data set [1]: Microsomal stability assay (human liver microsomes). Type of data set: in vitro ADME. On the procedure: To human liver microsomes (0.5 mg/mL) were added 0.1 M phosphate buffer (pH 7.4) and tested compounds (1 μM). After incubation at 37 °C for 5 min, NADPH generation system solution was added and incubated at 37 °C for 30 min. To terminate reaction, acetonitrile including internal standard (chloprapamide) was added, and the solution was centrifuged for 5 min (14,000 rpm, 4 °C). The supernatant was then injected into the LC-MS/MS system to analyze the microsomal stability of the tested compound.
Background: Liver microsomes are a subcellular fraction often used to study metabolism.

Data set [2] relates to collagen-induced arthritis. Briefly: Collagen-induced arthritis (CIA) mouse model. Type of data set: in vivo. The protocol:
The collagen-induced arthritis mouse model was established as previously described. Briefly, male DBA/1 J mice (6 − 8-weeks-old) were obtained from Beijing Vital River Laboratory Animal Technology Co., Ltd. (Charles River Laboratories department in Beijing, China), and kept under specific pathogen-free conditions. Chick collagen type II (Chondrex, Redmond, Washington, USA) was dissolved in 0.05 M acetic acid to a concentration of 2 mg/mL and emulsified with a complete Freund’s adjuvant (2 mg/mL M. tuberculosis H37Ra, Chondrex). At the beginning of the experiments (day 0), the mice were immunized with a 0.1 mL emulsion containing 100 μg of collagen at the tail base with a glass syringe and 25-G needles and then administered a booster (on day 21) with the same preparation of collagen and incomplete Freund’s adjuvant (Chondrex).
Cell culture supernatants, mice sera and synovial fluid were analyzed for cytokine content using the BD OptEIA ELISA set (BD Pharmingen) for the detection of TNF-α, IL-6, IL-1β, and IL-18. All assays were performed as recommended by the manufacturer.
Intracellular ROS levels were measured by flow cytometry from cells cultured in serum-free medium and loaded with the redox-sensitive dye 2 µM dihydroethidium (DHE for O2^−; Calbiochem) or 10 µM 2′,7′-Dichlorofluorescin diacetate (DCFH-DA for H2O2; Calbiochem)[18],[19]. The cells were thoroughly and quickly washed with pulse spin and immediately acquired for analyses in FACSCalibur (BD Biosciences, San Jose, CA). The data were plotted using CellQuest software (BD Biosciences).
Figure 4 TIPTP protects mice from CIA mice. (a) Schematic of the CIA model treated with TIPTP (upper). FACS analysis for superoxide and hydrogen peroxide from synovial fluid containing synoviocytes from CIA (lower). (b) Representative H&E staining of the ankle joints of each group were determined at 4 wks of CIA (left). Clinical arthritis score and swelling of paws (right) from ten mice per group. Scale bars: 500 μm. Serum (c) and Synovial fluid (d) were harvested at 4 wks of CIA and analyzed for cytokines by ELISA. […]
Arthritis mice were evaluated for disease progression three times a week as follows ^1,2. Each limb was scored according to the severity of inflammation, where 0 : no evidence of redness or swelling, 1 : redness and slight swelling confined to the tarsal joints or ankle, 2 : redness and mild swelling extending from the ankle to the tarsal joints, 3 : redness and moderate swelling extending from the ankle to the metatarsal joints, and 4 : severe swelling encompassing the ankle, foot, and digits, or ankylosis of the limb. […]

In general, share remaining refers to the share of the starting amount still present when the sample was taken. `C[C@@H](Oc1cccc(-n2cc3c(n2)CCCC3)c1)C(=O)Nc1nnc(C(F)(F)F)s1` [TIPTP, (R)-2-(3-(4,5,6,7-tetrahydro-2H-indazol-2-yl)phenoxy)-N-(5-(trifluoromethyl)-1,3,4-thiadiazol-2-yl)propanamide]: in data set [1] (in words), the “metabolism in human hepatic microsomes” value is reported as “easily metabolized”. Further, the share remaining at 0.5 h, 1 μM in data set [1] (pH 7.4, human liver microsomes 0.5 mg/mL, 1 μM, 30 min, read-out: Human liver microsomal stability (% remaining after 30 min)) was 4.4%. In addition, in data set [2] (CIA mice (Fig. 4b, Supplemental Fig. 6a)), the “severity of RA (clinical parameters, paw thickness, histology) vs vehicle-treated CIA mice” value is recorded as “markedly lower”. Further, the “serum and synovial fluid concentrations of TNF-α, IL-6, IL-1β, and IL-18” value in data set [2] (CIA mice, 4 wks, ELISA (Fig. 4c,d)) is “significantly attenuated”. Moreover, the “production of ROS by synovial tissues” value in data set [2] (CIA mice, dose-dependent (Fig. 4a)) is listed as “significantly attenuated”. Also, the “binding of p22phox with Rubicon protein in synoviocytes” value in data set [2] (synoviocytes from CIA mice, co-IP (Fig. 4e)) was “markedly decreased”.
